Assay results as given in patent US7056734B1, “Differentiation of non-insulin producing cells into insulin producing cells by GLP-1 or exendin-4 and uses thereof” (The United States of America as represented by the …, priority 1998, dated 2006).

Assays:
AR42J cells [1] = test: Immunoreactive insulin release from treated AR42J cells (RIA); type: cell-based, rat
Protocol: Measurement of immunoreactive insulin. AR42J cells were cultured as before in 12-well cluster plates. When cells reached 60% confluence, they were treated with GLP-1 for 3 days. At the beginning of the experiments, an aliquot of the medium was taken in order to assay the insulin accumulation in the medium. Then the cells were twice washed with Kreb's Ringer Balanced Buffer (KRBB) and incubated in the same buffer containing 10 mM glucose for another 1 h. The medium was collected and kept at −20° C. until insulin levels were assayed by RIA (See Example 1; Wang et al., Endocrinology, 1995). The cells were washed with PBS and detached with 0.25% typsin and 0.02% EDTA. The cell pellet was collected and lysed with formic acid for protein determination by the Bradford method (Bradford, 1976), using bovine-globulin as standard.

AR42J cells [2] = test: RT-PCR of insulin and glucagon mRNA in AR42J cells; type: cell-based, rat
Protocol: Reverse-transcription polymerase chain reaction (RT-PCR). Total RNA was isolated from treated AR42J cells by the methods of Chomczynski and Sacchi (1987). The total RNA samples were pretreated with DNAse in 20 mM Tris-HCL (pH 8.4), 2 mM MgCl2 and 50 mM KCl to remove any traces of contaminating genomic DNA. RT-PCR was undertaken in a volume of 50 μl of buffer containing 50 mM KCl, 10 mM Tris-HCl, 3.5 mM MgCl2, 200 μM each dNTPs, 0.4 μM each of sense and antisense primers to rat insulin I and II (insulin sense primer=5′[…]3′; insulin antisense primer=5′[…] 3′). Amplification was undertaken for 25 cycles at denaturing temperature 94° C. for 1 min, annealing temperature 60° C. for 45 sec and an extension temperature 72° C. for 1 min. mRNA from RIN 1046-38 cells were used as a positive control. In the case of glucagon RT-PCR, the denaturing and extension temperature was similar to insulin except the annealing temperature was 65° C. for 1 min (glucagon sense primer=5′ […]3′; antisense primer=5′ […]3′). The RT-PCR products were visualized by ethidium bromide staining on 2% agarose gels.

non-diabetic mice = test: Daily ip exendin-4 in non-diabetic littermates; type: in vivo, mouse
Excerpt: Animals. Four month old Wistar rats from the Wistar colony in the NIA (Baltimore, Md.) were used for the acute experiments of the effects of exendin-4 and GLP-1 (see Example 1). They had been maintained on standard lab chow and fed ad libitum. For the long-term experiments, diabetic mice (C57BLKS/J-Lepr^db/Lepr^db) lacking the leptin receptor, and their non-diabetic littermates were purchased at 4 weeks of age from Jackson Laboratories (Bar Harbor, Me.). They were housed two per cage and also were fed ad libitum. The same mice were caged together for the duration of the study. Wistar rats are caged on wire while the bedding for the mice was a paper based product, “Carefresh” (Absorption Co., Bellingham, Wash.).
Eleven diabetic and 10 non-diabetic animals received […] exendin-4 ip daily thereafter (7–9 am) while 10 diabetic and 10 non-diabetic animals received ip NaCl. Subsequently, whole blood glucose levels, taken from a retro-orbital sinus, were determined in the mice using a Glucometer Elite (Bayer). This regimen was continued for 12–13 weeks. […] Animals were weighed weekly. After one week of the regimen blood samples were again taken from a retro-orbital sinus for determination of insulin and glucose levels. At the end of the regimen, fasting blood samples were obtained for glucose and insulin levels and whole blood containing EDTA was assayed for hemoglobin A1c (Hb A1c) on the same day from the four groups.
Assays. Plasma glucose was measured by the glucose oxidase method (Wang et al., 1997). Insulin was measured by RIA as previously described (See Example 1). Hb A1c was assayed using a BIO-RAD (Herculas Calif.) DiaSTAT machine which uses low pressure cation exchange chromatography in conjunction with gradient elution to separate hemoglobin subtypes and variants from hemolyzed blood. The separated hemoglobin fractions were monitored by means of absorption of light at 415 nm.

## CC[C@H](C)[C@H](NC(=O)[C@H](Cc1ccccc1)NC(=O)[C@H](CCC(=O)O)NC(=O)[C@H](CCCCN)NC(=O)[C@H](C)NC(=O)[C@H](C)NC(=O)[C@H](CCC(N)=O)NC(=O)CNC(=O)[C@H](CCC(=O)O)NC(=O)[C@H](CC(C)C)NC(=O)[C@H](Cc1ccc(O)cc1)NC(=O)[C@H](CO)NC(=O)[C@H](CO)NC(=O)[C@@H](NC(=O)[C@H](CC(=O)O)NC(=O)[C@H](CO)NC(=O)[C@@H](NC(=O)[C@H](Cc1ccccc1)NC(=O)[C@@H](NC(=O)CNC(=O)[C@H](CCC(=O)O)NC(=O)[C@H](C)NC(=O)[C@@H](N)Cc1c[nH]cn1)[C@@H](C)O)[C@@H](C)O)C(C)C)C(=O)N[C@@H](C)C(=O)N[C@@H](Cc1c[nH]c2ccccc12)C(=O)N[C@@H](CC(C)C)C(=O)N[C@H](C(=O)N[C@@H](CCCCN)C(=O)NCC(=O)N[C@@H](CCCNC(=N)N)C(N)=O)C(C)C [GLP-1]
AR42J cells [1]; 1 nM GLP-1 for 3 days, 60–72 h time period, mean±SD of 3 cultures
  insulin in cell culture medium: 5.1±0.4 pg insulin/μg protein
AR42J cells [1]; 3 days of GLP-1, then KRBB with 10 mM glucose for 1 h, control cells zero
  glucose-induced insulin in buffer: 0.65±0.15 pg insulin/μg protein
AR42J cells [2]; GLP-1-treated for 3 days, none in non-treated cells
  rat insulin I and II mRNA by RT-PCR: demonstrated a 187 bp rat insulin I and II mRNA
AR42J cells [2]; GLP-1-treated, 48 h
  glucagon mRNA at 236 bp by RT-PCR: detected

## exendin-4
non-diabetic mice; 12–13 weeks
  trends in glucose and insulin: the same in the non-diabetic animals with exendin-4 treatment though not as dramatic
non-diabetic mice; 12–13 weeks, p=0.0002
  Hb A1c: 3.5%
non-diabetic mice; NaCl-treated 135±5, p<0.05
  fasting glucose level after one week of treatment: 70 ± 25 mg/dL
non-diabetic mice; day eight
  deaths just after receiving exendin-4: two of the non-diabetic mice
